System: THP-1 Blue, Raw Blue, HEK-blue hTLR3, HEK-Blue hTLR4, HEK-Blue hNOD2
Assay: Innate immune response activation assays in TLR/NOD2 reporter cell lines
Assay type: cell-based
Details: 5 cell lines covering TLR and NOD2 expression; 3 PPQ lots; highest drug substance concentration tested 10 μg/mL
Procedure: Method development, qualification, and testing for activation of innate immune response was performed. The innate immune assays performed compared 3 PPQ lots. The work was conducted using 5 cell lines to cover TLR and NOD2 expression (THP-1 Blue, Raw Blue, HEK-blue hTLR3, HEK-Blue hTLR4, HEK-Blue hNOD2). […] The highest drug substance concentration tested was 10 μg/mL. A dose of the sterile preparation of purified corticotropin at 80 U is, equivalent to approximately 1 mg of drug substance per total body weight of subject.

Row | SMILES | dose response for activation of innate immune response
1 | CCCc1nc2c(N)nc3ccccc3c2s1 [CL075] | robust dose responses
2 | CC(=O)N[C@@H]1[C@@H](O[C@H](C)C(=O)N[C@@H](C)C(=O)N[C@H](CCC(=O)O)C(N)=O)[C@H](O)[C@@H](CO)O[C@H]1O [MDP] | robust dose responses
